# Experiments:
# Assay type in all cases: cell-based
# [1] = system: Clostridium perfringens A22787; assay: microbe, parasite or virus in culture
# [2] = system: Staphylococcus aureus A22421; assay: MIC, serial two-fold dilution method (aerobic); conditions: Staphylococcus aureus A22421, Mueller-Hinton agar, inoculum 10^4
# [3] = system: Bacteroides fragilis A20926; assay: MIC, serial two-fold dilution method (anaerobic); conditions: Bacteroides fragilis A20926, GAM agar medium, inoculum 10^7-10^8
# [4] = system: Fusobacterium varium ATCC 8501; assay: MIC, serial two-fold dilution method (anaerobic); conditions: Fusobacterium varium ATCC 8501, GAM agar medium, inoculum 10^7-10^8
# [5] = system: Peptococcus magnas A21676; assay: MIC, serial two-fold dilution method (anaerobic); conditions: Peptococcus magnas A21676, GAM agar medium, inoculum 10^7-10^8
# [6] = system: Bacteroides fragilis A21900; assay: MIC, serial two-fold dilution method (anaerobic); conditions: Bacteroides fragilis A21900, GAM agar medium, inoculum 10^7-10^8
# [7] = system: Clostridium chauvoei A9561; assay: MIC, serial two-fold dilution method (anaerobic); conditions: Clostridium chauvoei A9561, GAM agar medium, inoculum 10^7-10^8
# [8] = system: Clostridium difficile A21972; assay: MIC, serial two-fold dilution method (anaerobic); conditions: Clostridium difficile A21972, GAM agar medium, inoculum 10^7-10^8
# [9] = system: Clostridium septicum A21869; assay: MIC, serial two-fold dilution method (anaerobic); conditions: Clostridium septicum A21869, GAM agar medium, inoculum 10^7-10^8
# [10] = system: Clostridium difficile A21675; assay: MIC, serial two-fold dilution method (anaerobic); conditions: Clostridium difficile A21675, GAM agar medium, inoculum 10^7-10^8
# [11] = system: Bacteroides fragilis CUH-9; assay: MIC, serial two-fold dilution method (anaerobic); conditions: Bacteroides fragilis CUH-9, GAM agar medium, inoculum 10^7-10^8
# [12] = system: Bacillus subtilis ATCC 6633; assay: MIC, serial two-fold dilution method (aerobic); conditions: Bacillus subtilis ATCC 6633, Mueller-Hinton agar, inoculum 10^4
# [13] = system: Staphylococcus aureus A9748; assay: MIC, serial two-fold dilution method (aerobic); conditions: Staphylococcus aureus A9748, Mueller-Hinton agar, inoculum 10^4
# [14] = system: Clostridium ramosum A21970; assay: MIC, serial two-fold dilution method (anaerobic); conditions: Clostridium ramosum A21970, GAM agar medium, inoculum 10^7-10^8
# [15] = system: Staphylococcus aureus BX-1633; assay: MIC, serial two-fold dilution method (aerobic); conditions: Staphylococcus aureus BX-1633, Mueller-Hinton agar, inoculum 10^4
# [16] = system: Bacteroides fragilis A22695; assay: MIC, serial two-fold dilution method (anaerobic); conditions: Bacteroides fragilis A22695, GAM agar medium, inoculum 10^7-10^8
# Proteus vulgaris A9436 = assay: MIC, serial two-fold dilution method (aerobic); conditions: Proteus vulgaris A9436, Mueller-Hinton agar, inoculum 10^4
# Sarcina lutea PCI-1001 = assay: MIC, serial two-fold dilution method (aerobic); conditions: Sarcina lutea PCI-1001, Mueller-Hinton agar, inoculum 10^4
# [17] = system: Staphylococcus aureus #193; assay: MIC, serial two-fold dilution method (aerobic); conditions: Staphylococcus aureus #193, Mueller-Hinton agar, inoculum 10^4
# [18] = system: Veillonella parvula A20010; assay: MIC, serial two-fold dilution method (anaerobic); conditions: Veillonella parvula A20010, GAM agar medium, inoculum 10^7-10^8
# [19] = system: Fusobacterium nucleatum A21906; assay: MIC, serial two-fold dilution method (anaerobic); conditions: Fusobacterium nucleatum A21906, GAM agar medium, inoculum 10^7-10^8
# [20] = system: Staphylococcus aureus A9856; assay: MIC, serial two-fold dilution method (aerobic); conditions: Staphylococcus aureus A9856, Mueller-Hinton agar, inoculum 10^4
# [21] = system: Bacteroides fragilis A22053; assay: MIC, serial two-fold dilution method (anaerobic); conditions: Bacteroides fragilis A22053, GAM agar medium, inoculum 10^7-10^8
# Proteus mirabilis A9554 = assay: MIC, serial two-fold dilution method (aerobic); conditions: Proteus mirabilis A9554, Mueller-Hinton agar, inoculum 10^4
# [22] = system: Veillonella alcalescens A21914-1; assay: MIC, serial two-fold dilution method (anaerobic); conditions: Veillonella alcalescens A21914-1, GAM agar medium, inoculum 10^7-10^8
# [23] = system: Clostridium perfringens A9635; assay: microbe, parasite or virus in culture
# [24] = read-out: minimum inhibitory concentration (MIC)
# [25] = Clostridioides difficile, read-out: minimum inhibitory concentration (MIC)
compound,measurement,setting,value
Amphomycin,minimum inhibitory concentration (MIC),"[1]; Clostridium perfringens A22787, GAM agar medium, inoculum 10^7-10^8",12.5 µg/mL
same,minimum inhibitory concentration (MIC),[2],3.1 µg/mL
same,minimum inhibitory concentration (MIC),[3],50 µg/mL
same,minimum inhibitory concentration (MIC),[4],25 µg/mL
same,minimum inhibitory concentration (MIC),[5],6.3 µg/mL
same,minimum inhibitory concentration (MIC),[6],25 µg/mL
same,minimum inhibitory concentration (MIC),[7],6.3 µg/mL
same,minimum inhibitory concentration (MIC),[8],25 µg/mL
same,minimum inhibitory concentration (MIC),[9],6.3 µg/mL
same,minimum inhibitory concentration (MIC),[10],3.1 µg/mL
same,minimum inhibitory concentration (MIC),[11],> 100 µg/mL
same,minimum inhibitory concentration (MIC),[12],1.6 µg/mL
same,minimum inhibitory concentration (MIC),[13],6.3 µg/mL
same,minimum inhibitory concentration (MIC),[14],25 µg/mL
same,minimum inhibitory concentration (MIC),[15],3.1 µg/mL
same,minimum inhibitory concentration (MIC),[16],> 100 µg/mL
same,minimum inhibitory concentration (MIC),Proteus vulgaris A9436,> 100 µg/mL
same,minimum inhibitory concentration (MIC),Sarcina lutea PCI-1001,0.8 µg/mL
same,minimum inhibitory concentration (MIC),[17],3.1 µg/mL
same,minimum inhibitory concentration (MIC),[18],6.3 µg/mL
same,minimum inhibitory concentration (MIC),[19],6.3 µg/mL
same,minimum inhibitory concentration (MIC),[20],3.1 µg/mL
same,minimum inhibitory concentration (MIC),[21],> 100 µg/mL
same,minimum inhibitory concentration (MIC),Proteus mirabilis A9554,> 100 µg/mL
same,minimum inhibitory concentration (MIC),[22],25 µg/mL
same,minimum inhibitory concentration (MIC),"[23]; Clostridium perfringens A9635, GAM agar medium, inoculum 10^7-10^8",6.3 µg/mL
CC1(C)S[C@@H]2[C@H](NC(=O)[C@H](N)c3ccccc3)C(=O)N2[C@H]1C(=O)O [Ampicillin],MIC,"[1]; Clostridium perfringens, A22787, read-out: minimum inhibitory concentration (MIC)",0.1 µg/mL
same,MIC,[2]; [24],12.5 µg/mL
same,MIC,[3]; [24],0.2 µg/mL
same,MIC,"[4]; ATCC8501, read-out: minimum inhibitory concentration (MIC)",12.5 µg/mL
same,MIC,[5]; [24],0.1 µg/mL
same,MIC,[6]; [24],0.2 µg/mL
same,MIC,[7]; [24],0.4 µg/mL
same,MIC,[8]; [25],0.2 µg/mL
same,MIC,[9]; [24],0.8 µg/mL
same,MIC,[10]; [25],1.6 µg/mL
same,MIC,"[11]; CUH9, read-out: minimum inhibitory concentration (MIC)",3.1 µg/mL
same,MIC,"[12]; ATCC6633, read-out: minimum inhibitory concentration (MIC)",0.013 µg/mL
same,MIC,[13]; [24],25 µg/mL
same,MIC,"[14]; Thomasclavelia ramosa, read-out: minimum inhibitory concentration (MIC)",0.8 µg/mL
same,MIC,"[15]; BX1633, read-out: minimum inhibitory concentration (MIC)",3.1 µg/mL
same,MIC,[16]; [24],> 100 µg/mL
same,MIC,Proteus vulgaris A9436; [24],0.4 µg/mL
same,MIC,"Sarcina lutea PCI-1001; Micrococcus luteus, PCI1001, read-out: minimum inhibitory concentration (MIC)",< 0.05 µg/mL
same,MIC,[17]; [24],1.6 µg/mL
same,MIC,[18]; [24],0.4 µg/mL
same,MIC,[19]; [24],12.5 µg/mL
same,MIC,[20]; [24],0.05 µg/mL
same,MIC,[21]; [24],6.3 µg/mL
same,MIC,Proteus mirabilis A9554; [24],0.8 µg/mL
same,MIC,"[22]; Veillonella parvula, A219141, read-out: minimum inhibitory concentration (MIC)",0.025 µg/mL
same,MIC,"[23]; Clostridium perfringens, A9635, read-out: minimum inhibitory concentration (MIC)",0.2 µg/mL

# Reference: patent publication US4409210A, “Antibiotic compound” (priority 1982, dated 1983)
